Test results taken from article PMC117120 (BMC Biochemistry, 2002).
Positions count from the first letter of the chain named. Values joined by “and” are separate entries in the source; they are usually repeats but may differ in a detail not shown here. Equal entries are not always repeated.

Key:
wildtype mouse 5-HT3ASR = target: T1, wildtype mouse 5-HT3ASR (Mus musculus, UniProt P23979); experiment: [^3H]granisetron saturation binding, wildtype receptor
T1 sequence (P23979 24-483 isoform P23979-2 limits assumed): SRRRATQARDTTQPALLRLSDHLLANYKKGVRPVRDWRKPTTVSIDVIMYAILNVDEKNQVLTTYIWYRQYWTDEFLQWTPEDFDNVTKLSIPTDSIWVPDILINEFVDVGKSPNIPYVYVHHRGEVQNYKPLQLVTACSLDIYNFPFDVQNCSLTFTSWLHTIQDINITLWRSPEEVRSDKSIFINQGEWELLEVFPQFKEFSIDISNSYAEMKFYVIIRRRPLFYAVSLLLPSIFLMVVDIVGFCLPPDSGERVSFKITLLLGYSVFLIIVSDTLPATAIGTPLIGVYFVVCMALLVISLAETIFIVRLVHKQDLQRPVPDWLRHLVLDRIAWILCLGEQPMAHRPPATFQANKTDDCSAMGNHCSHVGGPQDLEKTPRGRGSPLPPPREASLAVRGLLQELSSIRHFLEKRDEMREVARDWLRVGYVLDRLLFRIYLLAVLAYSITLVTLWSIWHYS

[1] = target: T2, Y140A mutant mouse 5-HT3ASR (Mus musculus, UniProt P23979, Y141A); experiment: [^3H]granisetron saturation binding, Y140A receptor; details: ± SE
T2 sequence (P23979 24-483 isoform P23979-2 Y141A): T1 sequence (P23979 24-483 isoform P23979-2 limits assumed) with Y118A

[2] = target: T3, V143A mutant mouse 5-HT3ASR (Mus musculus, UniProt P23979, V144A); experiment: [^3H]granisetron saturation binding, V143A receptor; details: ± SE
T3 sequence (P23979 24-483 isoform P23979-2 V144A): T1 sequence (P23979 24-483 isoform P23979-2 limits assumed) with V121A

[3] = target: T4, Q150A mutant mouse 5-HT3ASR (Mus musculus, UniProt P23979, Q151A); experiment: [^3H]granisetron saturation binding, Q150A receptor; details: ± SE
T4 sequence (P23979 24-483 isoform P23979-2 Q151A): T1 sequence (P23979 24-483 isoform P23979-2 limits assumed) with Q128A

[4] = target: T5, Y152A mutant mouse 5-HT3ASR (Mus musculus, UniProt P23979, Y153A); experiment: [^3H]granisetron saturation binding, Y152A receptor; details: ± SE
T5 sequence (P23979 24-483 isoform P23979-2 Y153A): T1 sequence (P23979 24-483 isoform P23979-2 limits assumed) with Y130A

CN1C2CCCC1CC(NC(=O)c1nn(C)c3ccccc13)C2 (centres unmarked) [[^3H]granisetron]
Bmax (wildtype mouse 5-HT3ASR; absence of protease inhibitor, ± SE): 3.2 ± 0.13 pmol/mg protein and 3.2 ± .13 pmol/mg protein | Bmax (+ protease inhibitor) (wildtype mouse 5-HT3ASR; membranes prepared in the presence of protease inhibitor cocktail): 3.1 ± 0.11 pmoles/mg protein | Hill coefficient (n) (wildtype mouse 5-HT3ASR; ± SE): 1 ± 0.12 | Bmax [1]: 0.44 ± .08 pmol/mg protein | Bmax [2]: 1.1 ± .04 pmol/mg protein | Hill coefficient (n) [2]: 0.97 ± 0.13 | Bmax [3]: 0.56 ± .09 pmol/mg protein | Bmax [4]: 0.59 ± .10 pmol/mg protein
